Reference: patent US11167059B2, “Compositions with reactive ingredients, and wound dressings, apparatuses, and methods” (KCI Licensing, Inc., priority 2010, dated 2021)

What was measured:
Type in all cases: cell-based
C. alb. = assay: zone of inhibition (ZOI), foam discs saturated with solution, C. alb.; details: 8 mm foam disc saturated with solution
Method: (§1) Referring now to FIG. 17, the experiments described above for FIG. 14 were also performed with additional foams, one foam in which 1 gram of Calcium hypochlorite salt was infused (D100, shown as left column for each cycle), and one foam in which 2 grams of Calcium hypochlorite salt was dispersed (D200, shown as right column for each cycle). […] As discussed additionally below, the minimum concentration is significant because testing identified concentrations of hypochlorite-ion as low as 0.5-0.7 mM to have effective antibacterial and antimicrobial properties. Additional testing was performed to measure the zone of inhibition (ZOI) and Log Reduction of microbes for various samples of released aqueous solutions having various concentrations of hypochlorite ion, as listed in Tables 2 and 3. Table 2 lists ZOI and Log reduction data for a single cycle measured at hold times (exposure duration) of 30 seconds and 5 minutes of bacterial exposure to solution. Table 3 lists ZOI and Log reduction data for multiple cycles (each cycle including introduction of hypochlorite solution, and removal of solution prior to beginning next cycle). In the ZOI experimentation, foam discs having a diameter of 8 millimeters (mm) and a height of 5 mm were each saturated with hypochlorite-ion solution as indicated. Table 3 also lists the initial microbe count in log form (10^X, where X is listed in Table 2), log reduction in microbe count, and ZOI in mm. For the data of Table 3, the initial concentration (1×) of hypochlorite ion in solution was 5.7 mM of hypochlorite ion, which corresponds to 0.041% w/v of Ca(OCl)^2. In the Log reduction experimentation, the microbes were exposed to the respective concentration of solution for 30 seconds per cycle. […] The bold entries in Table 3 are indicative of substantially all microbes being killed. In the biofilm eradication cycles listed in Table 6 below, probes were cultured with microbes and incubated to permit formation of a biofilm on the probe. The probe was then exposed to solutions having various concentrations of Calcium hypochlorite solution for multiple cycles, with each cycle including exposure of the probe to solution for a duration of 5 minutes.

[1] = system: Staphylococcus aureus ATCC 10832; assay: Minimum Biofilm Eradication Concentration (MBEC), S. aureus ATCC 10832; details: Staphylococcus aureus ATCC 10832 biofilm on probe, 5 minutes per cycle, % w/v Ca(OCl)2
Method: as §1, with “The probe was then exposed to solutions having various concentrations of Calcium hypochlorite solution for multiple cycles, with each cycle including exposure of the probe to solution for a duration of 5 minutes.” left out

[2] = system: Staphylococcus aureus USA 400 (MRSA); assay: Minimum Inhibitory Concentration (MIC), S. aureus USA 400 (MRSA); details: % w/v Ca(OCl)2 in water
[3] = system: Staphylococcus aureus ATCC 10832; assay: Log reduction, multiple cycles, S. aureus ATCC 10832; details: 30 seconds per cycle
Method: as §1

[4] = Sample Dilution 1x (5.7 mM hypochlorite ion, 0.041% w/v Ca(OCl)2)
[5] = Sample Dilution 2x of 5.7 mM hypochlorite ion
[6] = Sample Dilution 4x of 5.7 mM hypochlorite ion
[7] = Sample Dilution 8x of 5.7 mM hypochlorite ion (lowest concentration, 0.7 mM)

hypochlorite ion [OCl^− Solutions]
ZOI, D in mm C. alb. (C. alb.; 0.8 mM HOCl/OCl−): 15.0 mm
ZOI, D in mm C. alb. (C. alb.; 1.9 mM HOCl/OCl−): 24.3 mm
ZOI, D in mm C. alb. (C. alb.; 3.1 mM HOCl/OCl−): 22.0 mm
ZOI, D in mm C. alb. (C. alb.; 4.0 mM HOCl/OCl−): 34.3 mm
ZOI, D in mm C. alb. (C. alb.; 10.7 mM HOCl/OCl−): 45.7 mm
ZOI, D in mm C. alb. (C. alb.; 15.7 mM HOCl/OCl−): 44.3 mm
Minimum Biofilm Eradication Concentration (MBEC) 1 Cycle ([1]; 1 Cycle): <0.005% w/v
Minimum Biofilm Eradication Concentration (MBEC) 3 Cycles ([1]; 3 Cycles): <0.005% w/v
Minimum Biofilm Eradication Concentration (MBEC) 5 Cycles ([1]; 5 Cycles): <0.005% w/v
Minimum Inhibitory Concentration (MIC) 1 Cycle ([2]; 1 Cycle): <0.005% w/v
Minimum Inhibitory Concentration (MIC) 3 Cycles ([2]; 3 Cycles): <0.005% w/v
Minimum Inhibitory Concentration (MIC) 5 Cycles ([2]; 5 Cycles): <0.005% w/v
Log Reduction Staphylococcus aureus ATCC 10832 1 Cycle [3, 4]: 3.21
Log Reduction Staphylococcus aureus ATCC 10832 3 Cycles [3, 4]: 2.82
Log Reduction Staphylococcus aureus ATCC 10832 5 Cycles [3, 4]: 2.66
Log Reduction Staphylococcus aureus ATCC 10832 1 Cycle [3, 5]: 3.21
Log Reduction Staphylococcus aureus ATCC 10832 3 Cycles [3, 5]: 2.82
Log Reduction Staphylococcus aureus ATCC 10832 5 Cycles [3, 5]: 2.66
Log Reduction Staphylococcus aureus ATCC 10832 1 Cycle [3, 6]: 3.21
Log Reduction Staphylococcus aureus ATCC 10832 3 Cycles [3, 6]: 2.82
Log Reduction Staphylococcus aureus ATCC 10832 5 Cycles [3, 6]: 2.66
Log Reduction Staphylococcus aureus ATCC 10832 1 Cycle [3, 7]: 3.21
Log Reduction Staphylococcus aureus ATCC 10832 3 Cycles [3, 7]: 2.82
Log Reduction Staphylococcus aureus ATCC 10832 5 Cycles [3, 7]: 2.66
